Test systems include SK-MEL-2 melanoma; CAKI-1 renal; HCT-116 colon; SNB-75 CNS; MALME-3M melanoma; SR leukemia; UACC-257 melanoma; PC-3 prostate; TK-10 renal; K-562 leukemia.
Holding throughout (test): NCI-60 cell line screen, 48 h

The values below come from PubChem BioAssay (NCI).

SMILES strings stand for the structures.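 Assay format: 96-well plates, 48-hour exposure. GI50 marks 50% less growth. The concentration for full growth arrest is given as TGI.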

On to `CCCCOc1ccc(/C=N/Nc2cc(C)nc3ccc(Cl)cc23)cc1`, for which the GI50 in the experiment on SK-MEL-2 melanoma was 1.85 µM; with CAKI-1 renal, 1.68 µM; in the experiment on HCT-116 colon, 2.13 µM; in the experiment with SNB-75 CNS it was 1.75 µM; in the experiment on MALME-3M melanoma, 1.85 µM; with SR leukemia it was 0.501 µM. Moreover, the GI50 with UACC-257 melanoma is 1.61 µM; in the experiment with PC-3 prostate, 1.71 µM; with TK-10 renal, 1.87 µM. The TGI was 3.43 µM in the experiment with SK-MEL-2 melanoma; 3.07 µM with CAKI-1 renal; 4.85 µM with HCT-116 colon; 3.33 µM with SNB-75 CNS; 3.38 µM in the experiment with MALME-3M melanoma; 3.13 µM in the experiment on SR leukemia. The TGI was found to be 3.11 µM in the experiment with UACC-257 melanoma, 3.35 µM in the experiment on PC-3 prostate and 3.28 µM in the experiment on TK-10 renal.
`O=S(=O)(O)ONC1=NCCN1`: the GI50 in the experiment with SK-MEL-2 melanoma was above 100 µM; with CAKI-1 renal, above 100 µM; in the experiment with HCT-116 colon, 65.1 µM; in the experiment on SNB-75 CNS, above 100 µM; in the experiment on MALME-3M melanoma, above 100 µM; in the experiment on SR leukemia it was above 100 µM. Also, the GI50 with K-562 leukemia, in the experiment with UACC-257 melanoma, with PC-3 prostate and with TK-10 renal was above 100 µM throughout. Besides, the TGI in the experiment with SK-MEL-2 melanoma, with CAKI-1 renal, in the experiment on HCT-116 colon, with SNB-75 CNS, with MALME-3M melanoma and with SR leukemia was above 100 µM throughout. The TGI with K-562 leukemia, in the experiment on UACC-257 melanoma, in the experiment with PC-3 prostate and in the experiment with TK-10 renal was above 100 µM throughout.
Turning to `Cn1ncc(-c2ccc3c(=O)[nH]nc(CN)c3c2)c1-c1c(F)cc2ccccc2c1C#N`, the GI50 in the experiment with SK-MEL-2 melanoma is 4.63 µM; in the experiment on CAKI-1 renal, 5.53 µM; in the experiment with HCT-116 colon, 3.69 µM; in the experiment on SNB-75 CNS it was 4.44 µM; in the experiment on MALME-3M melanoma, 4.57 µM; with SR leukemia, 1.1 µM. The GI50 was 3.41 µM in the experiment on K-562 leukemia, 7.28 µM with UACC-257 melanoma, 8.21 µM in the experiment on PC-3 prostate and 10.7 µM in the experiment with TK-10 renal. The TGI with SK-MEL-2 melanoma came to 16.3 µM; in the experiment on CAKI-1 renal it was 19 µM; in the experiment on HCT-116 colon, 14.5 µM; in the experiment with SNB-75 CNS it was 19.5 µM; with MALME-3M melanoma it was 17.6 µM; in the experiment on SR leukemia it was 13.1 µM. Further, the TGI is 38.3 µM with K-562 leukemia, 20.8 µM in the experiment with UACC-257 melanoma, 23.6 µM with PC-3 prostate and 24.1 µM in the experiment with TK-10 renal.
In the case of `Oc1c(CN2CCOCC2)cc(COCc2ccccc2)c2cccnc12`, the GI50 in the experiment with SK-MEL-2 melanoma is 3.22 µM; with CAKI-1 renal, 0.555 µM; with HCT-116 colon, 2.82 µM; in the experiment on SNB-75 CNS, 10.4 µM; with MALME-3M melanoma, 2.84 µM; with SR leukemia, 0.681 µM. The GI50 was 2.74 µM in the experiment on K-562 leukemia, 2.58 µM with UACC-257 melanoma, 7.34 µM in the experiment with PC-3 prostate and 3.75 µM in the experiment on TK-10 renal. In addition, the TGI with SK-MEL-2 melanoma was 59.1 µM; in the experiment with CAKI-1 renal, above 100 µM; in the experiment on HCT-116 colon, above 100 µM; in the experiment on SNB-75 CNS it was above 100 µM; with MALME-3M melanoma, above 100 µM; in the experiment on SR leukemia it was 17.9 µM. Moreover, the TGI with K-562 leukemia was above 100 µM; in the experiment on UACC-257 melanoma, 7.84 µM; in the experiment with PC-3 prostate it was above 100 µM; in the experiment on TK-10 renal, above 100 µM.
For `Oc1ccc(Cl)cc1-c1cc(-c2ccc(F)cc2)n[nH]1`, the GI50 in the experiment on SK-MEL-2 melanoma is 4.11 µM; in the experiment on CAKI-1 renal it was 1.77 µM; in the experiment with HCT-116 colon it was 2 µM; in the experiment with SNB-75 CNS, 2.07 µM; in the experiment on MALME-3M melanoma, 3.26 µM; in the experiment with SR leukemia, 1.24 µM. Besides, the GI50 with K-562 leukemia is 2.8 µM; in the experiment with UACC-257 melanoma, 2.96 µM; with PC-3 prostate it was 1.96 µM; in the experiment with TK-10 renal, 3.23 µM. Besides, the TGI with SK-MEL-2 melanoma was 19.3 µM; in the experiment on CAKI-1 renal, 9.14 µM; in the experiment on HCT-116 colon, 5.64 µM; with SNB-75 CNS it was 9.19 µM; in the experiment with MALME-3M melanoma, 9.66 µM; with SR leukemia, above 100 µM. The TGI in the experiment with K-562 leukemia amounted to 27.1 µM; in the experiment with UACC-257 melanoma it was 21 µM; with PC-3 prostate, 8.81 µM; in the experiment with TK-10 renal, 8.74 µM.
On to `O=[N+]([O-])c1cc(F)c2cccnc2c1O`, for which the GI50 in the experiment with SK-MEL-2 melanoma is 10.1 µM; in the experiment with CAKI-1 renal it was 3.82 µM; in the experiment on HCT-116 colon, 6.93 µM; in the experiment on SNB-75 CNS, 4 µM; with MALME-3M melanoma, 3.89 µM; in the experiment on SR leukemia, 1.96 µM. The GI50 was 15.5 µM in the experiment on UACC-257 melanoma, 4.47 µM in the experiment with PC-3 prostate and 14.9 µM in the experiment on TK-10 renal. The TGI in the experiment with SK-MEL-2 melanoma is 94.4 µM; in the experiment on CAKI-1 renal, 25.8 µM; in the experiment on HCT-116 colon, above 100 µM; in the experiment with SNB-75 CNS it was above 100 µM; in the experiment with MALME-3M melanoma, 28.8 µM; in the experiment on SR leukemia it was 6.96 µM. Also, the TGI in the experiment on UACC-257 melanoma was 58.8 µM; in the experiment on PC-3 prostate, above 100 µM; with TK-10 renal it was above 100 µM.
As for `COc1ccc(NC(=O)/C=C(C)/C=C/C=C(C)\C=C\C2=C(C)CCCC2(C)C)cc1`, the GI50 in the experiment with SK-MEL-2 melanoma was 72.4 µM; in the experiment with HCT-116 colon it was 28.6 µM; in the experiment on SNB-75 CNS, 2.15 µM; with MALME-3M melanoma, 41.2 µM; in the experiment with SR leukemia, 28.8 µM; in the experiment on K-562 leukemia, 30.3 µM. In addition, the figures for the GI50 with UACC-257 melanoma, in the experiment on PC-3 prostate and in the experiment on TK-10 renal were 14.1 µM, 72.6 µM and above 100 µM, respectively. Besides, the TGI was above 100 µM in the experiment on SK-MEL-2 melanoma; above 100 µM in the experiment with HCT-116 colon; above 100 µM in the experiment with SNB-75 CNS; above 100 µM in the experiment with MALME-3M melanoma; 80.8 µM in the experiment on SR leukemia; above 100 µM with K-562 leukemia. The TGI with UACC-257 melanoma, in the experiment on PC-3 prostate and in the experiment on TK-10 renal was above 100 µM throughout.
For the compound `O=C(c1ccccc1)C1C(C(=O)c2ccccc2)C(c2ccccc2)N(c2ccccc2)C1c1ccccc1` (stereo unspecified), the TGI in the experiment with SK-MEL-2 melanoma, in the experiment on CAKI-1 renal, in the experiment on HCT-116 colon, with MALME-3M melanoma, in the experiment on SR leukemia and in the experiment on K-562 leukemia was above 100 µM each time. For the same compound, the TGI with UACC-257 melanoma, in the experiment with PC-3 prostate and in the experiment on TK-10 renal was above 100 µM each time.
`COc1cc(-c2nn(-c3ccc(NC(=O)c4cc(Cl)cc(Cl)c4)cc3)cc2-c2ccncc2)ccc1Cl`: the GI50 in the experiment with SK-MEL-2 melanoma was above 100 µM; in the experiment with CAKI-1 renal it was above 100 µM; in the experiment with HCT-116 colon it was 16.3 µM; in the experiment on SNB-75 CNS, 4.14 µM; in the experiment on SR leukemia it was above 100 µM; in the experiment on K-562 leukemia, 2.91 µM. Also, the GI50 with UACC-257 melanoma is above 100 µM; in the experiment on PC-3 prostate it was 42 µM; in the experiment on TK-10 renal, above 100 µM. Also, the TGI with SK-MEL-2 melanoma, in the experiment on CAKI-1 renal, with HCT-116 colon, with SNB-75 CNS, in the experiment on SR leukemia and in the experiment with K-562 leukemia was above 100 µM throughout. The TGI in the experiment with UACC-257 melanoma, with PC-3 prostate and in the experiment with TK-10 renal was above 100 µM in each case.
`O=C(Nc1cccc(C(F)(F)F)c1)c1cc(Br)cc(Br)c1O`: the TGI in the experiment with SK-MEL-2 melanoma is 5.07 µM; in the experiment with CAKI-1 renal, 6.6 µM; in the experiment with HCT-116 colon, 5.44 µM; in the experiment on SNB-75 CNS, above 10 µM; in the experiment with SR leukemia it was above 10 µM; in the experiment on K-562 leukemia, 7.18 µM. Further, the figures for the TGI in the experiment on UACC-257 melanoma, with PC-3 prostate and in the experiment on TK-10 renal were 6.93 µM, 7.28 µM and 7.38 µM, respectively.
As for `COc1ccc(-c2c(N)n[nH]c2-c2cc(OC)c(OC)c(OC)c2)cc1`, the GI50 in the experiment on SK-MEL-2 melanoma was 0.215 µM; in the experiment on CAKI-1 renal, 0.381 µM; with HCT-116 colon, 0.173 µM; in the experiment on SNB-75 CNS it was 0.216 µM; with MALME-3M melanoma, 22.5 µM; in the experiment with SR leukemia it was 0.0308 µM. The GI50 in the experiment on K-562 leukemia was 0.043 µM; with UACC-257 melanoma, 23.6 µM; in the experiment with PC-3 prostate it was 0.11 µM. Moreover, the TGI in the experiment on SK-MEL-2 melanoma is above 100 µM; in the experiment with CAKI-1 renal, above 100 µM; in the experiment with HCT-116 colon, above 38.8 µM; in the experiment with SNB-75 CNS it was above 100 µM; with MALME-3M melanoma, above 100 µM; with SR leukemia, 29.1 µM. For the same compound, the TGI in the experiment on K-562 leukemia, in the experiment with UACC-257 melanoma and with PC-3 prostate was above 100 µM in each case.
Consider `Nc1c(C(=O)Nc2cccc(Br)c2)sc2nc3c(cc12)C(O)CCC3` (stereo unspecified), for which the GI50 with SK-MEL-2 melanoma was 0.484 µM; in the experiment with CAKI-1 renal, 0.439 µM; in the experiment on HCT-116 colon it was 0.483 µM; in the experiment with SNB-75 CNS it was 0.359 µM; with MALME-3M melanoma, 0.522 µM; with SR leukemia it was 0.228 µM. Also, the GI50 in the experiment with K-562 leukemia was 0.12 µM; with PC-3 prostate it was 0.349 µM; in the experiment on TK-10 renal, 14.2 µM. Also, the TGI is 36.8 µM in the experiment on SK-MEL-2 melanoma; above 100 µM with CAKI-1 renal; above 51.6 µM in the experiment with HCT-116 colon; 17.5 µM in the experiment with SNB-75 CNS; above 87.1 µM in the experiment with MALME-3M melanoma; above 46 µM in the experiment on SR leukemia. The TGI in the experiment with K-562 leukemia is above 38.4 µM; with PC-3 prostate, 24.4 µM; in the experiment on TK-10 renal, 51.6 µM.
